In patent US20090306053A1, “Highly selective rho-kinase inhibitor” (priority 2005, published 2009):

Assays:
[1] = target: ROCKII (Rho-kinase) (Homo sapiens, UniProt O75116); experiment: Rho-kinase (ROCKII) assay according to Patent Document 1; format: biochemical; parameters: key to Realative Inhibitory Activity ROCKII: relative ratio; ROCKII-inhibiting activity defined as 1.0; settings: for Realative Inhibitory Activity ROCKII: ROCKII-inhibiting activity defined as 1.0 (reference); for IC50: read-out: Kinase Inhibiting Activity (IC50) ROCKII
Sequence of ROCKII (Rho-kinase) (O75116 whole entry, species assumed): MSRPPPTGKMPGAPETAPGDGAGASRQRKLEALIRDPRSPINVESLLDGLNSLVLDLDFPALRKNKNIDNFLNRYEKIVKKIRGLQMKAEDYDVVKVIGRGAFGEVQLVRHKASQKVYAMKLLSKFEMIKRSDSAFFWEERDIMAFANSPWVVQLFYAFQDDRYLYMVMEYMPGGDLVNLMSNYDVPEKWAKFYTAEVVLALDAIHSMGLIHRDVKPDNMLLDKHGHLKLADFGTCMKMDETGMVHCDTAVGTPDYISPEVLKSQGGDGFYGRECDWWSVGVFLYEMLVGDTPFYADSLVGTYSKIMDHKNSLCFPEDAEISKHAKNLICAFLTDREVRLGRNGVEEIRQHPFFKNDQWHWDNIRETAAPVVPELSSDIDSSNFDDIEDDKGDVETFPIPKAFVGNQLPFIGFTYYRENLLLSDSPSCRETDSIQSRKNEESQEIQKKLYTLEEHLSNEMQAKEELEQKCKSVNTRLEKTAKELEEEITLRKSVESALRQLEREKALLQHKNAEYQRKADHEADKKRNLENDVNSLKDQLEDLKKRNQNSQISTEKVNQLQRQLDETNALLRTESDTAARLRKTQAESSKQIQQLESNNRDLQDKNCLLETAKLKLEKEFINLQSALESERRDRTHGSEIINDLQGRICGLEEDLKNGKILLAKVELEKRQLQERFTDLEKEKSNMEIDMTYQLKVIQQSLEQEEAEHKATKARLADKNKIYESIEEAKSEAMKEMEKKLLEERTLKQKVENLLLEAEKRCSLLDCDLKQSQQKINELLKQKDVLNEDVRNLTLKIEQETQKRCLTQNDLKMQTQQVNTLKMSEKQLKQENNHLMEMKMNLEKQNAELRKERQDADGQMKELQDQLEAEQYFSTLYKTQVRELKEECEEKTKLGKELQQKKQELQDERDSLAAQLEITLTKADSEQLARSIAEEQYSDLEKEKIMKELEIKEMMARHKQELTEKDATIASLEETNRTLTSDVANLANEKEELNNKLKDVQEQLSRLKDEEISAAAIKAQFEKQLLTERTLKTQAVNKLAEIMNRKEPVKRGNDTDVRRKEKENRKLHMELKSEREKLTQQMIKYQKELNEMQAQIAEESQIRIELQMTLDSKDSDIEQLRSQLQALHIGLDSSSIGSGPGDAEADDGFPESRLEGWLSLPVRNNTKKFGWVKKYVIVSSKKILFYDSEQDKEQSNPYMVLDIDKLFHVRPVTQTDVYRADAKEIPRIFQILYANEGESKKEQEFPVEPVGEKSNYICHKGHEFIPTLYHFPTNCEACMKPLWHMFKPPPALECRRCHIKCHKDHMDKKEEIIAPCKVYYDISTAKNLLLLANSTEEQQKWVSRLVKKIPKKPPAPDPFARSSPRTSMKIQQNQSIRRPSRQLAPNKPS
Protocol: An Rho-kinase assay was carried out according to the method described in Patent Document 1, and the concentration of a compound for inhibiting Rho-kinase activity by 50% (hereinafter referred to as “IC50 value”) was calculated.
The ROCKII-inhibiting activity of a compound to be tested was defined as 1.0, and the inhibitory activities of the compound against kinases (PKA, PKG, CaMKII, and AuroraA) other than ROCKII were calculated as relative ratios to the ROCKII-inhibiting activity, based on the IC50 values calculated using the above-described evaluation system.

[2] = target: Purified rat PKC; experiment: PKC kinase assay (Kinase-Glo ATP consumption); format: biochemical; settings: 1 μM ATP; read-out: Kinase Inhibiting Activity (IC50) PKC
Protocol: Purified rat PKC (containing PKCα, β, and γ and small amounts of δ and ξ isoforms, Promega) was used to evaluate its activity to phosphorylate a substrate peptide (AAKIQASFRGHMARKK, Promega).
In a system of the total volume of 50 μL, the reaction of the above-mentioned enzyme (5 ng) was carried out at room temperature for 80 minutes in the presence of 20 mM of Tris-HCl (pH 7.5), 20 mM of magnesium chloride, 0.4 mM of calcium chloride, 0.1 mg/mL of BSA, 0.25 mM of EGTA, 0.5 mg/mL of phosphatidylserine (Sigma), 0.05 mg/mL of 1,2-dioctanoyl-sn-glycerol (Sigma), 10 μM of the above peptide, and 1 μM of ATP. After the kinase reaction, the luminescence intensity corresponding to the amount of ATP in the reaction system was measured using a luciferase reagent (Kinase-Glo Luminescent Kinase Assay kit, Promega) with a chemiluminescence measurement apparatus (MicroLumat, Berthold Technologies). The amount of ATP consumed by the phosphorylation reaction was calculated by comparison with the luminescence intensity in the system when the kinase reaction was not carried out.
With this system, the kinase reaction was carried out in the presence of a compound at various concentrations, and the IC50 value of the compound was determined based on the resulting compound concentration-response curve for ATP consumption.

Compound	Realative Inhibitory Activity ROCKII [1]	IC50 [1] [nM]	IC50 [2] [µM]
2-(S)-1-(4-fluoroisoquinoline-5-sulfonyl)-4-glycyl-2-methylhomopiperazine dihydrochloride [Example 1]	1	32.1	> 100
CNCC(=O)N1CCCN(S(=O)(=O)c2cccc3cncc(F)c23)[C@@H](C)C1.Cl.Cl [Example 2, 2-(S)-1-(4-fluoroisoquinoline-5-sulfonyl)-2-methyl-4-(N-methylglycyl)homopiperazine dihydrochloride]	1	29	> 100
